Experimental data published in patent publication US20060135551A1, “Novel heterocyclic compounds and their pharmaceutical compositions” (priority 2004, published 2006).

Biological target: T1, Recombinant CETP enzyme (Homo sapiens, UniProt P11597)
T1 construct: purchased Cardiovascular Targets
T1 sequence (P11597 18-493): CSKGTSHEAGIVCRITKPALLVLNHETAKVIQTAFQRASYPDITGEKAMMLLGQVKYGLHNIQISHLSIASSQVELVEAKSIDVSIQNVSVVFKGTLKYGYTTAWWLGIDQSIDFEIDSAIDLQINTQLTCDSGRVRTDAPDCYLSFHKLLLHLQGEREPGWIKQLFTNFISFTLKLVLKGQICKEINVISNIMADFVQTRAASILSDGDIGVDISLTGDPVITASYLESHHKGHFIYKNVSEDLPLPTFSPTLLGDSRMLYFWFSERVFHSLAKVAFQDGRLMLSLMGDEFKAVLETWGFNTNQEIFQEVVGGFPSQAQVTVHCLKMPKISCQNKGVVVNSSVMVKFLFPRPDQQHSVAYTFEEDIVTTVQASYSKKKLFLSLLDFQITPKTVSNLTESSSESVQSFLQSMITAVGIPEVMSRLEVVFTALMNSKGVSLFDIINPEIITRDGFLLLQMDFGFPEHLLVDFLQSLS
Experiment: In vitro fluorescence-based CETP inhibition assay (BODIPY-CE transfer from donor to acceptor microemulsions)
Format: biochemical
Conditions: recombinant CETP 0.14 ng/μl; transfer of fluorescent cholesteryl ester monitored over 2 hours; compared to DMSO controls
Experimental: An in vitro fluorescence-based assay to identify CETP inhibitors was developed from modifications of the protocols outlined in Bisgaier et al., J Lipid Res., 34(9): 1625-34 (1993) and Epps et al., Chem Phys Lipids., 77(1): 51-63 (1995). Acceptor and donor lipid microemulsions were prepared according to Bisgaier et al., 1993, except that the buffer was prepared with 0.67 ug/ml human HDL (Calbiochem). Donor microemulsions contained the fluorescent cholesteryl ester analog BODIPY-CE (Molecular Probes), characterized by excitation and emission maxima at 503 nm and 518 nm, respectively. The CETP-mediated transfer of fluorescent cholesteryl ester to acceptor particles was monitored over a 2-hour time period using the FAM filter set (excitation 492 nm, emission 516 nm) in an MX3000P fluorescent plate reader (Stratagene). Recombinant CETP enzyme (Cardiovascular Targets) was used at 0.14 ng/μl, final concentration, to achieve lipid transfer. CETP inhibition by compounds was compared to DMSO controls and graphed as a percentage of the control CETP activity over 2 hours. The IC50 curves for CETP inhibition were generated from the activity profiles. Active compounds were also tested for CETP inhibition as above, but in the presence of 3% human serum albumin, fraction V (Calbiochem).
Using this protocol, IC50 data for CETP inhibition were obtained.

- IC50: 4.6 µM
Compound: CCOC(=O)N1c2c(c(C)nn2C)C(N(Cc2cc(C(F)(F)F)cc(C(F)(F)F)c2)C(=O)OC)CC1CC (stereo not shown) [Example E1, 4-[(3,5-Bis-trifluoromethyl-benzyl)-methoxycarbonyl-amino]-6-ethyl-1,3-dimethyl-1,4,5,6-tetrahydro-pyrazolo[3,4-b]pyridine-7-carboxylic acid ethyl ester]
